Consider 27 compounds from ChEMBL document CHEMBL1201862, “PubChem BioAssay data set” (2004).

Calls of active or inactive are those of the source.

Experiment [1] addresses T1, Corticotropin-releasing factor receptor 2/Corticotropin-releasing factor-binding protein (Homo sapiens, UniProt P24387+Q13324).
T1 sequence (Q13324 whole entry): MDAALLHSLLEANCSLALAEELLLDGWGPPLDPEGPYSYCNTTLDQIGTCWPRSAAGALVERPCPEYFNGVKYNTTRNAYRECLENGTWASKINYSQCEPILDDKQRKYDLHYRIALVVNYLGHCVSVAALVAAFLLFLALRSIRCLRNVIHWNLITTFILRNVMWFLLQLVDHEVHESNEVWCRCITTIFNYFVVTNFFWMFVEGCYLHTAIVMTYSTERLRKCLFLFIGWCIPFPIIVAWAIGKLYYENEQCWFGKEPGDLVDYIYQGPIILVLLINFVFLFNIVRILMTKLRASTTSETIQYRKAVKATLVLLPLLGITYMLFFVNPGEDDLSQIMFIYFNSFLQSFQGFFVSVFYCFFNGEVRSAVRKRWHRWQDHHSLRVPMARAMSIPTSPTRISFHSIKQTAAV
T1 sequence (P24387 whole entry): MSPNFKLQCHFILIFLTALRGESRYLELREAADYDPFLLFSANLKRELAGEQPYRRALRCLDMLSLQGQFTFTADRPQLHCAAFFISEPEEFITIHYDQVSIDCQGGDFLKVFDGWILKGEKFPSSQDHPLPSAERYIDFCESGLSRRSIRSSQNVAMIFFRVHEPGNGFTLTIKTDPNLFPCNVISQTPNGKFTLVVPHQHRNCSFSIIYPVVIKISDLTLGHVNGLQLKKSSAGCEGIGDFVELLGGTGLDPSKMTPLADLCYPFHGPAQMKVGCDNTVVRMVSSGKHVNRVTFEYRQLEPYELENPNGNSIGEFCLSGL
The experiment is described as follows: activators of CRF receptor 2 with binding protein – uHTS hits, confirmation (AID 602473). The class given is functional. As to conditions: read-out: EC50_Mean.

A short description of experiment [2]: HEp-2 cell cytotoxicity, dose response, cytotoxicity control for RSV inhibitor project, HTS (AID 2410). As to conditions: human respiratory syncytial virus. The class given is functional.
For another experiment, the target named is T2, Cytochrome P450 1A2 (Homo sapiens, UniProt P05177).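 Also: PubChem cytochrome P450 panel assay, CYP1A2 panel member.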
T2 sequence (P05177 whole entry): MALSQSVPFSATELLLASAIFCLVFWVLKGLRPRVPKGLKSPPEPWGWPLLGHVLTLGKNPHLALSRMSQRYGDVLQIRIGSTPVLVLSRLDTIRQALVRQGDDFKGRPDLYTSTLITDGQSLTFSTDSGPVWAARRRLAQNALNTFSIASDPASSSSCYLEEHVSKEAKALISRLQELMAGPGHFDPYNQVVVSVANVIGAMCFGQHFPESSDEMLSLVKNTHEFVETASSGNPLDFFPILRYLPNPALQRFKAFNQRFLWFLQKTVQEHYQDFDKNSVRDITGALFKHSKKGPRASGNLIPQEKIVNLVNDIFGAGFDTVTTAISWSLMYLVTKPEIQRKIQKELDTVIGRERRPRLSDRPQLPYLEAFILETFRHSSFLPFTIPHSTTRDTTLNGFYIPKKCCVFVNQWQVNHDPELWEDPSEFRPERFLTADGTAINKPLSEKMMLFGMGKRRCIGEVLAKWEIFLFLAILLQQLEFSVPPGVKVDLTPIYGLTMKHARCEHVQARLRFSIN

The target of another experiment is Cytochrome P450 2C9 (Homo sapiens, UniProt P11712).
For experiment [3], the target named is T3, Replicative DNA helicase DnaB (Mycobacterium tuberculosis, UniProt P9WMR3).
T3 sequence (P9WMR3 whole entry): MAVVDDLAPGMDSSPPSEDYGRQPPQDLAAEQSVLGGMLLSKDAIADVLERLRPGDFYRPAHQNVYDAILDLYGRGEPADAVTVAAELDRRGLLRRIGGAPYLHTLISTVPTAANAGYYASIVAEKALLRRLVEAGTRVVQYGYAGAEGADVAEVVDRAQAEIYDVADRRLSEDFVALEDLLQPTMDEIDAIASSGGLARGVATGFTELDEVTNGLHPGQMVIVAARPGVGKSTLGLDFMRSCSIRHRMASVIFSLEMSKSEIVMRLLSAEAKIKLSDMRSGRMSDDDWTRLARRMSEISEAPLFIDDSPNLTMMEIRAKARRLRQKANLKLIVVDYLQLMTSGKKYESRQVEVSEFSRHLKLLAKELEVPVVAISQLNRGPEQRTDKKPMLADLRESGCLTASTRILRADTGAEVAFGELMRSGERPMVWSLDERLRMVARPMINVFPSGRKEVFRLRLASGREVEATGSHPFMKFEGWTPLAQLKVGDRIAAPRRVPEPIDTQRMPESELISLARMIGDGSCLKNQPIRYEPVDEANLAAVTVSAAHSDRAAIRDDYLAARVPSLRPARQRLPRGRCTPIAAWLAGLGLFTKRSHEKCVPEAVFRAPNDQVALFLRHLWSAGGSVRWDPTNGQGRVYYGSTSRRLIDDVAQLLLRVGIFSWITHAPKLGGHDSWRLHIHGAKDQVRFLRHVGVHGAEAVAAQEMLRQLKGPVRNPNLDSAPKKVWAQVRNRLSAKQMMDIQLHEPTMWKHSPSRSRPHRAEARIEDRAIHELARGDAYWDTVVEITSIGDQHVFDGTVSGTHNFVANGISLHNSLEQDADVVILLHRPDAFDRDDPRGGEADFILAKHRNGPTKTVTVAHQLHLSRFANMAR
The experiment is described as follows: DnaB intein splicing inhibitors, dose response, biochemical, cell-free fluorescence (AID 449749). The class given is functional.

The target of a further experiment is T4, Protein RecA (Mycobacterium tuberculosis, UniProt P9WHJ3).
T4 sequence (P9WHJ3 whole entry): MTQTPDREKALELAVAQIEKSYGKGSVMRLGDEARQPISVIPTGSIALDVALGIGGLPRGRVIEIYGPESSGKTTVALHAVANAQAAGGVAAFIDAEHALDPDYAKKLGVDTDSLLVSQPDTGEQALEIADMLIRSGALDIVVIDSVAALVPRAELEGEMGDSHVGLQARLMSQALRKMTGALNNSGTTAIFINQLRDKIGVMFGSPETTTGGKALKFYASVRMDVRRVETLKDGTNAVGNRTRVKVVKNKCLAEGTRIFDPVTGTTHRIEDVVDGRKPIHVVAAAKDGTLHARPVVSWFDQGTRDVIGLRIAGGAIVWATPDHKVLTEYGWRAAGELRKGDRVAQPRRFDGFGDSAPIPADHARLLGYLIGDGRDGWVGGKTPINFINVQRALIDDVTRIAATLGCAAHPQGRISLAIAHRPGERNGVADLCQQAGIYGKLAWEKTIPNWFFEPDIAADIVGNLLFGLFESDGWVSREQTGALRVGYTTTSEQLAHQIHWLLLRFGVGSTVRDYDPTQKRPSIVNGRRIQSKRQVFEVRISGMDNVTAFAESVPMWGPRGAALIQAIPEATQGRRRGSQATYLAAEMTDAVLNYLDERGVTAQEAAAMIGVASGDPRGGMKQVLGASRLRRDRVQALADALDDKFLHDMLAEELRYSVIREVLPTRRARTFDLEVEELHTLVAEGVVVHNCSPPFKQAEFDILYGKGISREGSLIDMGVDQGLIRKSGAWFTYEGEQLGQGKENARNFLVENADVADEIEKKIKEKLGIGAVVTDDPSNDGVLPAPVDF
Put plainly: Fluorescence Cell-Free Homogeneous Dose Retest to Identify Inhibitors of RecA-Intein Splicing Activity. [Related pubchem assays (depositor defined):AID2097, AID2223, AID489010, AID492950]. It is filed as functional.

In experiment [4] the target is T5, Rac GTPase-activating protein 1 (Homo sapiens, UniProt Q9H0H5).
T5 sequence (Q9H0H5 whole entry): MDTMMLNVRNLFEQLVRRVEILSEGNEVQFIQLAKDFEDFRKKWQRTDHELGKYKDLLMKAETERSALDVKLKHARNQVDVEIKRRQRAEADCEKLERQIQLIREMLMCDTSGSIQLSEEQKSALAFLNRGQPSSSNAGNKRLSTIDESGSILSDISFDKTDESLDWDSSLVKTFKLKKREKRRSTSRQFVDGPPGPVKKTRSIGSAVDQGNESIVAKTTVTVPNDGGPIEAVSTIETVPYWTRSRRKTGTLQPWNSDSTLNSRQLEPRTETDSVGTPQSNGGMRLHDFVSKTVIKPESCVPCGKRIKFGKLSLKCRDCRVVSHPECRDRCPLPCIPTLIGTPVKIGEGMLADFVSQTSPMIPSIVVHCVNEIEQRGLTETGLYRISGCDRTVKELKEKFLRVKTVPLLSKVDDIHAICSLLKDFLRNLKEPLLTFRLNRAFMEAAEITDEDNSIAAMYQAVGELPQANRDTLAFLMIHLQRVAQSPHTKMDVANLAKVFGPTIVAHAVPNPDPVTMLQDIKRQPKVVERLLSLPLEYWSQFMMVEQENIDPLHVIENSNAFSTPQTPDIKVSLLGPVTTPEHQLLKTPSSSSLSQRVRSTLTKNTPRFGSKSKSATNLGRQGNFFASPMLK
The experiment is described as follows: MgcRacGAP GTPase-activating activity inhibitors, confirmation, biochemical, ADP Hunter fluorescence, primary and confirmatory (AID 624330). The class given is functional.

In experiment [5] the target is T6, RNA-binding protein pos-1 (Caenorhabditis elegans, UniProt G5EF15).
T6 sequence (G5EF15 whole entry): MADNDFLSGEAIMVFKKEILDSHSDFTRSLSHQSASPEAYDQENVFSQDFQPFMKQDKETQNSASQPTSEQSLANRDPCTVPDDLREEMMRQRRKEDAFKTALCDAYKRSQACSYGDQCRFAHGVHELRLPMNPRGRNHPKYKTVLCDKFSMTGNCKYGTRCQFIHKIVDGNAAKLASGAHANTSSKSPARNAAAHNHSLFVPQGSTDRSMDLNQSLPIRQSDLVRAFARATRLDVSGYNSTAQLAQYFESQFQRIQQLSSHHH
Put plainly: inhibitors of POS-1/mex-3 RNA binding, dose response, biochemical, fluorescence polarization (AID 1964).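 Also: purified POS-1 fused to maltose binding protein made in E. coli; potency of compounds blocking POS-1 binding to fluorescent RNA.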 On the technique in general: In fluorescence polarisation assays a small probe gives low polarisation when free and higher when bound to something large.

In general, CC50 refers to the concentration at which the toxic effect on the cells reaches its halfway point. A word on the AC50: it is the midpoint of the concentration-response curve, whichever way the signal moves. Usually IC50 stands for the concentration that inhibits the measured activity by half.

Cytochrome P450 2C9, sequence (P11712 whole entry): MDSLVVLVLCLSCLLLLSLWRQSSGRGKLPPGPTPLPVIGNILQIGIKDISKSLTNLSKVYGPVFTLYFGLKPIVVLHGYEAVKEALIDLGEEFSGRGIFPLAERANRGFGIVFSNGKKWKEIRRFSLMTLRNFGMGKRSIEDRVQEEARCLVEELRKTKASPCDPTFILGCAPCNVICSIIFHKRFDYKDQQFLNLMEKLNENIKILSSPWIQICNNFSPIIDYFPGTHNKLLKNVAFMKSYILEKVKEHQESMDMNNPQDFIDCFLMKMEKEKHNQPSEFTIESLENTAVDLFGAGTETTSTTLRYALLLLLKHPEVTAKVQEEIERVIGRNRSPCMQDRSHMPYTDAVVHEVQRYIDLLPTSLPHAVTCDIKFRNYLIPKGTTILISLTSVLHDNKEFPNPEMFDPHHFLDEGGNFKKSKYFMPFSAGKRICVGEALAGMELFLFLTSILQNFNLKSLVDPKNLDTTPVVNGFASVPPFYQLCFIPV

For `CC(=O)N1CCc2ccc(S(=O)(=O)N3CCN(C)CC3)cc21`, in experiment [1], the EC50 was > 53 µM (inactive). As for `CCn1nc(C(=O)Nc2ccccc2N2CCCC2)c2ccccc2c1=O`, the CC50 in experiment [2] is > 50 µM (active). On to `O=S(=O)(c1ccc2c(c1)OCCO2)N1CCN(c2cccc(Cl)c2)CC1`, for which, in experiment [2], the CC50 was 34.9 µM (active). Consider `CCCCc1ccc(-c2csc(/C(C#N)=C/c3ccc(C)o3)n2)cc1`, for which the results for the AC50 on Cytochrome P450 1A2 and at Cytochrome P450 2C9 were 2 µM (inconclusive) and 3.16 µM (inconclusive), respectively. As to `Cc1nc2sccn2c(=O)c1S(=O)(=O)Nc1cccc(Cl)c1C`, the EC50 in experiment [1] is > 53 µM (inactive). In the case of `COc1ccccc1CNC(=O)CCCn1nc(C)c2c(C)n(-c3ccc(C)cc3)nc2c1=O`, the CC50 in experiment [2] was 32 µM (active). Still for that read-out and setting: with `CCc1sc(C(=O)Nc2ccc3c(c2)OCCO3)cc1Br` the figure was 10.7 µM (active). Still for that read-out and setting: then `Oc1ccc(C[C@H]2CNCCN2CCC23CC4CC(CC(C4)C2)C3)cc1`, with 14.2 µM (active); and `COc1cc(OC)cc(C(=O)Nc2ccc(-c3nc4ccccc4o3)c(O)c2)c1`, with 17.6 µM (active). With `O=C(Nc1cccc(S(=O)(=O)N2CCCCC2)c1)c1ccccc1NS(=O)(=O)c1ccc(F)cc1`, the EC50 in experiment [1] is > 53 µM (inactive). As for `Nc1ccc2[nH]c(CCCCc3nc4ccccc4[nH]3)nc2c1`, the AC50 in experiment [3] is > 380 µM (inactive). Also, the EC50 on Protein RecA is 16.9 µM (active). Also, the IC50 in experiment [4] was 57.3 µM (active).

Regarding `CCOc1cc(C=C2C(=O)c3ccccc3C2=O)ccc1OCC(=O)Nc1ccc(C)cc1`, in experiment [1], the EC50 is > 53 µM (inactive). The same measure, in the same setting: then `COc1ccc(/C(O)=C/c2nc3ccccc3n(-c3ccccc3)c2=O)cc1`, with 7.85 µM (active). As to `O=C(O)[C@@H](S)[C@H](S)C(=O)O`, at Cytochrome P450 2C9, the AC50 is 3.98 µM (inconclusive). Take `CCOc1cc(N(CC)CC)ccc1/C=C(/C#N)c1nc2ccccc2[nH]1`: the CC50 in experiment [2] was 21.4 µM (active). Turning to `Cc1cccc(N2C(=O)/C(=C/c3ccc(N4CCN(C)CC4)o3)C(=O)NC2=S)c1C`, the EC50 in experiment [5] was > 300 µM (inconclusive). `C=CCn1c(=O)c2ccccc2n2c(SCC(=O)N3CCCc4ccccc43)nnc12`: the EC50 in experiment [1] was > 53 µM (inactive). Turning to `COc1ncc2nc(-c3cccs3)c(=O)n(C)c2n1`, the AC50 on Cytochrome P450 2C9 is 12.6 µM (inconclusive). In the case of `CCOP(=O)(OCC)c1nc(/C=C/c2ccccc2)oc1NCc1ccccc1`, the figures for the AC50 on Cytochrome P450 1A2 and at Cytochrome P450 2C9 were 15.8 µM (inconclusive) and 4.47 µM (inconclusive), respectively. As for `O=C(CCCN1C(=O)c2cccc3cccc(c23)C1=O)N1CCN(Cc2ccc3c(c2)OCO3)CC1`, in experiment [2], the CC50 was 43.7 µM (active). Same read-out and setting: then `CCOc1ccc2nc(NC(=O)COc3ccc(N(C)S(=O)(=O)c4ccc(C)cc4)cc3)sc2c1`, with 1.78 µM (active). On to `Cc1cc(C)c(NC(=O)C[S+]([O-])CC(=O)NCCCc2ccccc2)c(C)c1` (stereo not drawn), for which the AC50 at Cytochrome P450 2C9 is 28.2 µM (inconclusive).

With `CCSc1c([N+](=O)[O-])c(=O)n(-c2ccccc2)c2ccccc12`, in experiment [3], the AC50 was 3.94 µM (active). Also, at Protein RecA, the EC50 is 155 µM (active). As for `COC(=O)C1=C(c2ccc(C(C)=O)cc2)C[C@@H]2CC[C@H]1N2C(=O)NCc1ccc(C(F)(F)F)cc1`, the EC50 in experiment [1] was 4.94 µM (active). With `CCN(CC)c1ccc(/C=N/c2sc3c(c2C#N)C2CCN3CC2)c(O)c1`, the CC50 in experiment [2] was 6.56 µM (active). `CCc1cc2c(O)ncnc2s1`: the AC50 at Cytochrome P450 1A2 is 20 µM (inconclusive); on Cytochrome P450 2C9, 28.2 µM (inconclusive). As for `Nc1ccc(S(=O)(=O)Nc2cnc3ccccc3n2)cc1` [SULFAQUINOXALINE SODIUM], on Cytochrome P450 2C9, the AC50 was 10 µM (inconclusive).
